Measurements from article PMC5041959, “A high-content EMT screen identifies multiple receptor tyrosine kinase inhibitors with activity on TGFβ receptor” (Oncotarget, 2016).
Where two headings read alike, the source gives them in different places.

Tested on: NMuMG cells
Assay: High-content microscopy EMT screen in TGFβ-treated NMuMG cells (FA, SF, FN, cell count)
Assay type: cell-based, murine
Conditions: for IC50: cell count decreased by 50% compared to DMSO control, read-out: Tox IC50; for FA IC50 (focal adhesion formation) / FN IC50 (fibronectin patch formation) / SF IC50 (stress fibers): TGFβ1 2 ng/ml plus compound, 4 days, parameter decreased by 50%; for CCI IC50 (cell count increase): cell count increased by 50% compared to 100% with 10 μM SB-431542
[1] = NMuMG, compared to reference 10 μM SB-431542 = 100%

CS(=O)(=O)CCNCc1ccc(-c2ccc3ncnc(Nc4ccc(OCc5cccc(F)c5)c(Cl)c4)c3c2)o1 [Lapatinib]
IC50 (Mus musculus, NMuMG): 134 nM
FA IC50 (focal adhesion formation) (NMuMG): n.m.
FN IC50 (fibronectin patch formation) (NMuMG): n.m.
SF IC50 (stress fibers) (NMuMG): n.m.
Emax (maximal effect on cell count) [1]: n.m.

CO[C@@H]1C[C@@H](C[C@H]2CC[C@H](C)[C@H]([C@@H](C)C(=O)O)O2)O[C@]2(O[C@](C)([C@H]3CC[C@@](C)([C@@H]4O[C@@H]([C@H]5O[C@@](O)(CO)[C@H](C)C[C@@H]5C)C[C@@H]4C)O3)C[C@H]2C)[C@@H]1C [Nigericin]
IC50 (Mus musculus, NMuMG): < 40 nM
FA IC50 (focal adhesion formation) (NMuMG): n.m.
FN IC50 (fibronectin patch formation) (NMuMG): n.m.
SF IC50 (stress fibers) (NMuMG): n.m.
Emax (maximal effect on cell count) [1]: n.m.

CC[C@@H](C(=O)[C@@H](C)[C@@H](O)[C@H](C)[C@@H]1O[C@@H]([C@@H](CC)C(=O)O)CC[C@@H]1C)[C@H]1O[C@]2(C=C[C@@H](O)[C@]3(CC[C@@](C)([C@H]4CC[C@](O)(CC)[C@H](C)O4)O3)O2)[C@H](C)C[C@@H]1C [Salinomycin]
Emax (maximal effect on cell count): n.m.
IC50 (Mus musculus, NMuMG): 240 nM
FA IC50 (focal adhesion formation) (NMuMG): n.m.
FN IC50 (fibronectin patch formation) (NMuMG): n.m.
SF IC50 (stress fibers) (NMuMG): n.m.

c1ccc2c(c1)[I+]c1ccccc1-2 [Diphenyleneiodonium chloride (DPI), Diphenyleneiodonium chloride]
IC50 (Mus musculus, NMuMG): 453 nM
FA IC50 (focal adhesion formation) (NMuMG): n.m.
FN IC50 (fibronectin patch formation) (NMuMG): n.m.
SF IC50 (stress fibers) (NMuMG): n.m.
Emax (maximal effect on cell count) [1]: n.m.

COc1cc2c(Nc3ccc(Br)cc3F)ncnc2cc1OCC1CCN(C)CC1 [Vandetanib]
IC50 (Mus musculus, NMuMG): 208 nM
FA IC50 (focal adhesion formation) (NMuMG): n.m.
FN IC50 (fibronectin patch formation) (NMuMG): n.m.
SF IC50 (stress fibers) (NMuMG): n.m.
Emax (maximal effect on cell count) [1]: n.m.

CNC(=O)c1ccccc1Sc1ccc2c(/C=C/c3ccccn3)n[nH]c2c1 [Axitinib]
Emax (maximal effect on cell count) [1]: n.m.

COc1cc2c(Oc3ccc4[nH]c(C)cc4c3F)ncnc2cc1OCCCN1CCCC1 [Cediranib (azd2171), Cediranib]
IC50 (Mus musculus, NMuMG): 967 nM
FA IC50 (focal adhesion formation) (NMuMG): n.m.
FN IC50 (fibronectin patch formation) (NMuMG): n.m.
SF IC50 (stress fibers) (NMuMG): n.m.
Emax (maximal effect on cell count) [1]: n.m.

Nc1ncn([C@@H]2O[C@H](CO)[C@@H](O)[C@H]2O)c(=O)n1 [5-Azacytidine]
IC50 (Mus musculus, NMuMG): 1260 nM
FA IC50 (focal adhesion formation) (NMuMG): n.m.
FN IC50 (fibronectin patch formation) (NMuMG): n.m.
SF IC50 (stress fibers) (NMuMG): n.m.
Emax (maximal effect on cell count) [1]: n.m.

CCN1CCN(Cc2ccc(-c3cc4c(N[C@H](C)c5ccccc5)ncnc4[nH]3)cc2)CC1 [AEE788]
IC50 (Mus musculus, NMuMG): 44 nM
FA IC50 (focal adhesion formation) (NMuMG): n.m.
FN IC50 (fibronectin patch formation) (NMuMG): n.m.
SF IC50 (stress fibers) (NMuMG): n.m.
Emax (maximal effect on cell count) [1]: n.m.

Abamectin
FA IC50 (focal adhesion formation) (NMuMG): n.m.
FN IC50 (fibronectin patch formation) (NMuMG): n.m.
SF IC50 (stress fibers) (NMuMG): n.m.
IC50 (NMuMG): 9500 nM
CCI IC50 (cell count increase) (NMuMG): n.m.
Emax (maximal effect on cell count) [1]: n.m.

N#CC(=C(/N)Sc1ccccc1N)/C(C#N)=C(/N)Sc1ccccc1N [U0126]
FA IC50 (focal adhesion formation) (NMuMG): n.m.
FN IC50 (fibronectin patch formation) (NMuMG): n.m.
SF IC50 (stress fibers) (NMuMG): n.m.
IC50 (NMuMG): 1600 nM
CCI IC50 (cell count increase) (NMuMG): n.m.
Emax (maximal effect on cell count) [1]: n.m.

CCN(CC)CCNC(=O)c1c(C)[nH]c(/C=C2\C(=O)Nc3ccc(F)cc32)c1C [Sunitinib malate]
IC50 (Mus musculus, NMuMG): 5100 nM
FA IC50 (focal adhesion formation) (NMuMG): n.m.
FN IC50 (fibronectin patch formation) (NMuMG): n.m.
SF IC50 (stress fibers) (NMuMG): n.m.
Emax (maximal effect on cell count) [1]: n.m.

Clc1ccc(Nc2nnc(Cc3ccncc3)c3ccccc23)cc1 [Vatalanib]
IC50 (Mus musculus, NMuMG): 10600 nM
FA IC50 (focal adhesion formation) (NMuMG): n.m.
FN IC50 (fibronectin patch formation) (NMuMG): n.m.
SF IC50 (stress fibers) (NMuMG): n.m.
Emax (maximal effect on cell count) [1]: n.m.
